What all share (type): in vivo
For experiment [1], the system named is Solanum nigrum (SOLNI). The experiment can be described thus: Pre-emergence biological efficacy, glasshouse pot test. Conditions: 312 h, pre-emergence, rate 1,000 g/ha, evaluated after 13 days (100=total damage to plant; 0=no damage), read-out: Percentage damage caused to weed species, SOLNI. The gist of the method: (§1)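 Visual phytotoxicity (0 no damage, 100 total damage) assessed 13 d after treatment. Soil-sown pots sprayed one day post-sowing; dose 1000 or 250 g/ha; formulation in acetone/water 50:50, 0.5% Tween 20.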

Experiment [2] concerns Setaria faberi (SETFA). Described as above. Conditions: 312 h, pre-emergence, rate 1,000 g/ha, evaluated after 13 days (100=total damage to plant; 0=no damage), read-out: Percentage damage caused to weed species, SETFA. The gist of the method:
as §1

Experiment [3] relates to Echinochloa crus-galli (ECHCG). Described as above. Conditions: 312 h, pre-emergence, rate 1,000 g/ha, evaluated after 13 days (100=total damage to plant; 0=no damage), read-out: Percentage damage caused to weed species, ECHCG. The method, boiled down:
as §1

Experiment [4] relates to Ipomea hederaceae (IPOHE). The description is as above. Conditions: Ipomoea hederacea, 312 h; pre-emergence, rate 1,000 g/ha, evaluated after 13 days (100=total damage to plant; 0=no damage); read-out: Percentage damage caused to weed species, IPOHE. The gist of the method:
as §1

For experiment [5], the system named is Alopecurus myosuroides (ALOMY). The description is as above. Conditions: 312 h, pre-emergence, rate 1,000 g/ha, evaluated after 13 days (100=total damage to plant; 0=no damage), read-out: Percentage damage caused to weed species, ALOMY. The method, boiled down:
as §1

The subject of experiment [6] is Amaranthus retoflexus (AMARE). The description is as above. Particulars: Amaranthus retroflexus, 312 h; pre-emergence, rate 1,000 g/ha, evaluated after 13 days (100=total damage to plant; 0=no damage); read-out: Percentage damage caused to weed species, AMARE. The method, boiled down: as §1
In experiment [7] the test system is Solanum nigrum (SOLNI). The experiment can be described thus: Post-emergence biological efficacy, glasshouse pot test. Conditions: 312 h, Rate 1,000 g/ha, post-emergence spray, evaluated after 13 days (100=total damage to plant; 0=no damage to plant), read-out: Percentage damage caused to weed species, post-emergence, SOLNI. The gist of the method:
(§2)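 Pot-grown weeds were sprayed 8 days after sowing with test compound in acetone/water (50:50) with 0.5% Tween 20 at 1000 or 250 g/ha. Glasshouse at 24/16° C day/night, 14 h light, 65% humidity. Damage scored 0-100 (100 = total damage) after 13 days.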

For experiment [8], the system named is Setaria faberi (SETFA). Described as above. Particulars: 312 h, Rate 1,000 g/ha, post-emergence spray, evaluated after 13 days (100=total damage to plant; 0=no damage to plant), read-out: Percentage damage caused to weed species, post-emergence, SETFA. The method, boiled down: as §2
For experiment [9], the system named is Echinochloa crus-galli (ECHCG). The experiment is described as above. Conditions: 312 h, Rate 1,000 g/ha, post-emergence spray, evaluated after 13 days (100=total damage to plant; 0=no damage to plant), read-out: Percentage damage caused to weed species, post-emergence, ECHCG. The gist of the method:
as §2

For experiment [10], the system named is Ipomea hederaceae (IPOHE). The experiment is described as above. Conditions: Ipomoea hederacea, 312 h; Rate 1,000 g/ha; post-emergence spray; evaluated after 13 days (100=total damage to plant; 0=no damage to plant); read-out: Percentage damage caused to weed species, post-emergence, IPOHE. The gist of the method: as §2
Experiment [11] deals with Alopecurus myosuroides (ALOMY). Described as above. Particulars: 312 h, Rate 1,000 g/ha, post-emergence spray, evaluated after 13 days (100=total damage to plant; 0=no damage to plant), read-out: Percentage damage caused to weed species, post-emergence, ALOMY. The method, boiled down:
as §2

The test system of experiment [12] is Amaranthus retoflexus (AMARE). The experiment is described as above. Particulars: Amaranthus retroflexus, 312 h; Rate 1,000 g/ha; post-emergence spray; evaluated after 13 days (100=total damage to plant; 0=no damage to plant); read-out: Percentage damage caused to weed species, post-emergence, AMARE. The gist of the method:
as §2

In US20110086759A1, “CHEMICAL COMPOUNDS” (SYNGENTA CROP PROTECTION, INC., priority 2007, published 2011) one finds pest or weed control data, which are given here for eight compounds.

`C=Cc1c(NCc2ccco2)nc(-c2ccc(Cl)cc2)nc1C(=O)OC` [Compound 67-125, 2-(4-Chlorophenyl)-5-ethenyl-4-(furan-2-ylmethylamino)-6-methoxycarbonyl-pyrimidine]: the pest or weed control at 1000 g/ha in experiment [1] amounted to 20%; in experiment [2], 10%; in experiment [3] it was 20%; in [4] it was 40%; in experiment [5], 50%; in experiment [6] it was 100%. For the same compound, the pest or weed control at 1000 g/ha in experiment [7] worked out at 90%; in [8] it was 0%; in [9], 40%; in experiment [10] it was 80%; in experiment [11], 30%; in experiment [12], 100%.
For the compound `COc1c(Cl)ccc(-c2nc(NCC3CC3)c(Cl)c(C(=O)O)n2)c1F` [Compound 109-43, 5-Chloro-2-(4-chloro-2-fluoro-3-methoxyphenyl)-4-cyclopropylmethyl-aminopyrimidine-6-carboxylic acid], the pest or weed control at 1000 g/ha in experiment [1] is 90%; in [2], 60%; in experiment [3] it was 30%; in [4], 70%; in experiment [5], 10%; in [6], 100%. The pest or weed control at 1000 g/ha came out at 100% in experiment [7]; 90% in [8]; 100% in [9]; 80% in experiment [10]; 90% in [11]; 100% in experiment [12].
On to `COc1c(Cl)ccc(-c2nc(NCc3ccco3)c(Cl)c(C(=O)O)n2)c1F` [Compound 109-125, 5-Chloro-2-(4-chloro-2-fluoro-3-methoxyphenyl)-4-(furan-2-yl-methyl-amino)pyrimidine-6-carboxylic acid], for which the pest or weed control at 1000 g/ha in experiment [1] was found to be 100%; in experiment [2] it was 90%; in experiment [3], 90%; in experiment [4] it was 100%; in experiment [5], 70%; in experiment [6] it was 100%. The pest or weed control at 1000 g/ha in experiment [7] was determined as 90%; in experiment [8], 90%; in experiment [9], 80%; in [10] it was 100%; in experiment [11] it was 70%; in experiment [12], 100%.
Turning to `COC(=O)c1nc(-c2ccc(Cl)c(OC)c2F)nc(NCC2CC2)c1Cl` [Compound 112-43, 5-Chloro-2-(4-chloro-2-fluoro-3-methoxy-phenyl)-4-cyclo-propylmethylamino-6-methoxycarbonyl-pyrimidine], the pest or weed control at 1000 g/ha in experiment [1] was found to be 70%; in [2] it was 30%; in experiment [3], 60%; in experiment [4], 80%; in [5], 40%; in experiment [6], 60%. For the same compound, the pest or weed control at 1000 g/ha in [7] was 90%; in experiment [8], 80%; in experiment [9], 80%; in experiment [10], 70%; in experiment [11], 40%; in [12], 100%.
Consider `COC(=O)c1nc(-c2ccc(Cl)c(OC)c2F)nc(NCc2ccco2)c1Cl` [Compound 112-125, 5-Chloro-2-(4-chloro-2-fluoro-3-methoxyphenyl)-4-(furan-2-yl-methyl-amino)-6-methoxy-carbonylpyrimidine], for which the pest or weed control at 1000 g/ha in experiment [1] was 90%; in experiment [2] it was 90%; in experiment [3], 100%; in [4] it was 100%; in experiment [5], 70%; in [6], 100%. The pest or weed control at 1000 g/ha in experiment [7] was determined as 100%; in experiment [8], 100%; in experiment [9], 90%; in [10], 90%; in experiment [11], 80%; in experiment [12], 100%.
Turning to `COC(=O)c1nc(-c2ccc(Cl)c(OC)c2F)nc(NCc2ccc(C)o2)c1Cl` [Compound 112-135, 5-Chloro-2-(4-chloro-2-fluoro-3-methoxyphenyl)-6-methoxycarbonyl-4-[(5-methylfuran-2-yl)methylamino)-pyrimidine], the pest or weed control at 1000 g/ha in experiment [1] amounted to 100%; in experiment [2], 90%; in experiment [3] it was 90%; in experiment [4], 100%; in experiment [5] it was 70%; in experiment [6] it was 100%. Moreover, the pest or weed control at 1000 g/ha in [7] came out at 90%; in experiment [8], 90%; in [9], 90%; in experiment [10], 80%; in experiment [11], 70%; in [12] it was 100%.
Consider `C=Cc1c(NCc2ccco2)nc(-c2ccc(Cl)c(OC)c2F)nc1C(=O)OC` [Compound 139-125, 2-(4-Chloro-2-fluoro-3-methoxyphenyl)-5-ethenyl-4-(furan-2-ylmethylamino)-6-methoxycarbonyl-pyrimidine], for which the pest or weed control at 1000 g/ha in [1] worked out at 100%; in [2], 80%; in [3], 80%; in experiment [4] it was 90%; in experiment [5] it was 70%; in [6] it was 100%. Besides, the pest or weed control at 1000 g/ha in experiment [7] stood at 90%; in experiment [8], 90%; in experiment [9], 80%; in experiment [10], 80%; in experiment [11], 80%; in [12], 100%.
`CCCN(Cc1ccccc1)c1nc(C2CC2)nc(C(=O)OC)c1Cl` [Compound 145-60]: the pest or weed control at 1000 g/ha in experiment [1] amounted to 70%; in [2] it was 10%; in [3], 0%; in experiment [4], 40%; in experiment [5] it was 0%; in [6], 100%. In addition, the pest or weed control at 1000 g/ha in [7] was 80%; in experiment [8], 70%; in experiment [9], 40%; in experiment [10], 80%; in [11] it was 20%; in experiment [12] it was 90%.
